In US20260138961A1, “MODULATORS OF MITOCHONDRIAL DNA REPLICATION” (Pretzel Therapeutics, Inc., priority 2022, published 2026) one finds AC50 data, which are given here for 25 compounds.

Where only a bound is given, the exact number is not on record here.

In this experiment the target is T1, POLγA:G848S (Homo sapiens, UniProt P54098, G848S).
T1 sequence (P54098 1-1239 G848S): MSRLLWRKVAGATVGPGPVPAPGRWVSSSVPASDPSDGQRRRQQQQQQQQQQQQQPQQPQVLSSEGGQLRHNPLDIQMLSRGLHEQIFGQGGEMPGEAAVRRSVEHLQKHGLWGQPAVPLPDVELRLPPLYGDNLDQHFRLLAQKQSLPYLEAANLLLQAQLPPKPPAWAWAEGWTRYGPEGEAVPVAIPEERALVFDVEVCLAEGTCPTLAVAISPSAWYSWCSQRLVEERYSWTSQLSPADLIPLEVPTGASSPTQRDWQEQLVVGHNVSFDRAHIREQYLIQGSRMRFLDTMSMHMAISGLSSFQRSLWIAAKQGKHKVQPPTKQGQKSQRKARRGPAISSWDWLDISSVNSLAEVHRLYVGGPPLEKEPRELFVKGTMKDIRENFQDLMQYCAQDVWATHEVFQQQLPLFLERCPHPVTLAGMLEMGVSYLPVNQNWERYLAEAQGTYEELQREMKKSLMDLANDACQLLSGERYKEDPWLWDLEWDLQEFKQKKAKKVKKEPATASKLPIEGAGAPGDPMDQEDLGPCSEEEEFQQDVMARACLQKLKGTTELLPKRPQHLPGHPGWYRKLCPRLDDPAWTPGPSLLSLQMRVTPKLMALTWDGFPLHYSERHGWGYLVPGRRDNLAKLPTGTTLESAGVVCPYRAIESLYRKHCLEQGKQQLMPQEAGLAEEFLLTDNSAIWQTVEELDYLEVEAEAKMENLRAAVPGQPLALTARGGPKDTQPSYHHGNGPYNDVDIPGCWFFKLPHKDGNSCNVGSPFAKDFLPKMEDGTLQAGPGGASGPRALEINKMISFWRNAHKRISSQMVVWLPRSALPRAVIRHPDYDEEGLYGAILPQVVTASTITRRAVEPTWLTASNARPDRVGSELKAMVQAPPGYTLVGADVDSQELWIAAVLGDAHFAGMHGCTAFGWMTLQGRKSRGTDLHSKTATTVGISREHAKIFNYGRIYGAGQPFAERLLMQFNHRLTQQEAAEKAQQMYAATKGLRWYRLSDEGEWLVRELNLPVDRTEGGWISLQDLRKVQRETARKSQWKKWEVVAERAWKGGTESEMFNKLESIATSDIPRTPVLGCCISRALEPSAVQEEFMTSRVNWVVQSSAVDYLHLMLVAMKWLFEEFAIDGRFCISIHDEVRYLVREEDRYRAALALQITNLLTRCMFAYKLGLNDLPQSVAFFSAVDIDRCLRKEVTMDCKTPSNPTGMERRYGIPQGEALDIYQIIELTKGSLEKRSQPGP
T1 sequence (Q9UHN1 1-485 partner): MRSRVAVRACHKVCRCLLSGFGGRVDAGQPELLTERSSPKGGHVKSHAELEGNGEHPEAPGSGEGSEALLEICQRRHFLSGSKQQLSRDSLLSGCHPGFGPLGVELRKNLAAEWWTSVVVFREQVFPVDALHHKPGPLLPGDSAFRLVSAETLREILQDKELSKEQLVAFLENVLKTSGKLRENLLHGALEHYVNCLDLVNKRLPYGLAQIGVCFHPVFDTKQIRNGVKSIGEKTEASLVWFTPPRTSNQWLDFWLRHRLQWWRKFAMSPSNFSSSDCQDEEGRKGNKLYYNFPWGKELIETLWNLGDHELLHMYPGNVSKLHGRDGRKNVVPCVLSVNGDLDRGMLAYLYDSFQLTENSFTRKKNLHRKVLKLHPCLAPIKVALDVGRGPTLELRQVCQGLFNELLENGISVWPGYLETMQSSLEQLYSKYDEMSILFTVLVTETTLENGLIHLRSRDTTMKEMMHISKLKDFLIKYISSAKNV
In words: DNA polymerization assay, POLγA:G848S mutant. It counts as biochemical. The following applies: stimulation of polymerase activity, primed M13mp18 ssDNA, 37° C. 2 hours; read-out: G848S AC50. Here is the method:
DNA Polymerization Assay to Monitor Effects on Human Wildtype POLγ and Four Disease-Causing Mutant Variants of Human POLγ.
The ability of small molecules to stimulate the polymerase activity of POLγ was analyzed in a quantitative fluorescence SYBR Green I assay with fluorescence intensity (FI) readout.
In the presence of dNTPs, wild type human POLγ and mutant derivatives thereof were incubated with single-stranded, circular M13mp18 ssDNA hybridized to a short DNA oligonucleotide that functions as a primer for initiation of DNA synthesis. POLγ and mutant derivatives thereof will extend the primer and use the M13mp18 molecule as a template to synthesize long stretches of double-stranded DNA. SYBR Green I, which is a double-stranded DNA-binding dye, was used to quantify formation of double-stranded DNA in the reaction. When bound to double-stranded DNA, SYBR Green I fluorescence increases by up to 100-fold.
The assay was performed in the 384-well plate format. Upon addition of compounds, changes in double-stranded DNA synthesis activity can be monitored by following effects on fluorescent intensity.
The reactions also contained the accessory POLγB subunit, and the human mitochondrial single-stranded DNA binding protein (mtSSB).
The DNA template mixture used in the assay contained 0.5 nM primed M13 mp18 ssDNA, 400 nM mtSSB, 0.1 mM Tris-HCl (pH 8.0), 0.1 mM dNTP, 10 mM MgCl2, 0.1 mg/mL BSA, 1 mM TCEP solution, and 0.02% Triton X-100. The DNA template mixture for the wild type protein contained either 100 μM dNTP, 1 μM dNTP, or 0.1 μM dNTP, designated in Table 2 as 100 μM, 1 μM, and 0.1 μM, respectfully.
Microplates with compounds (0.1 μL in each well) to be tested in the assay were prepared from 10 mM compound stocks in 100% DMSO, and equal amounts of DMSO without any compound were added to positive and negative control wells.
The protein mixture was dispensed (5 μL into each well) into compound plates and incubated at 37° C. for 15 minutes. After incubation, 5 μL of the DNA template mixture was dispensed into each well. The plates were then incubated at 37° C. for 2 hours.
During incubation, a combined stop buffer and detection reagent solution was prepared. The buffer contained 25 mM EDTA (pH 8.0), 0.02% Triton X-100, and SYBR Green I [Invitrogen] diluted 10,000× (for fluorescent readout). EDTA will stop the enzymatic reaction by chelating magnesium ions.
Regarding `Cc1ccc(S(=O)(=O)Nc2csc(-c3ccccc3)n2)c(C)c1` [Example 123, 2,4-dimethyl-N-(2-phenylthiazol-4-yl)benzenesulfonamide], the AC50 (as a rule, the concentration at which the activity in the assay is half-maximal) was found to be 2 µM.
The result for `Cc1cc(S(=O)(=O)Nc2csc(-c3ccccc3)n2)c(F)cc1Cl` [Example 146, 4-chloro-2-fluoro-5-methyl-N-(2-phenylthiazol-4-yl)benzenesulfonamide] reads over 100 µM; that for `Cc1cc(S(=O)(=O)Nc2cccc(-c3ncc(C(N)=O)s3)c2)c(C)cc1Cl` [Example 92, 2-(3-((4-chloro-2,5-dimethylphenyl)sulfonamido)phenyl) thiazole-5-carboxamide], 1 µM.
The result for `O=S(=O)(Nc1csc(-c2ccccc2)n1)c1ccc(Cl)cc1Cl` [Example 138, 2,4-dichloro-N-(2-phenylthiazol-4-yl)benzenesulfonamide] reads over 100 µM; that for `O=S(=O)(Nc1csc(-c2ccccc2)n1)c1ccc(C(F)(F)F)cc1F` [Example 141, 2-fluoro-N-(2-phenylthiazol-4-yl)-4-(trifluoromethyl)benzenesulfonamide], over 100 µM.
On to `Cc1cc(S(=O)(=O)Nc2cccc(-c3nccn3C)c2)c(C)cc1Cl` [Example 19, 4-chloro-2,5-dimethyl-N-(3-(1-methyl-1H-imidazol-2-yl)phenyl)benzenesulfonamide], for which the AC50 stood at 3 µM.
The figure for `Cc1cc(S(=O)(=O)N[C@H]2CCCN(C(=O)N3CCCC3)C2)c(C)cc1Cl` [Example 130, (S)-4-chloro-2,5-dimethyl-N-(1-(pyrrolidinee-1-carbonyl)piperidin-3-yl)benzenesulfonamide] is over 100 µM.
Take `Cc1cc(S(=O)(=O)Nc2cccc(-c3ncc(C(=O)N(C)C)s3)c2)c(C)cc1Cl` [Example 94, 2-(3-((4-chloro-2,5-dimethylphenyl)sulfonamido)phenyl)-N,N-dimethylthiazole-5-carboxamide]: the AC50 was over 100 µM.
The result for `Cc1cc(S(=O)(=O)Nc2cccc(C(=O)N3CCC[C@H]3CO)c2)c(C)cc1Cl` [Example 145, (S)-4-chloro-N-(3-(2-(hydroxymethyl)pyrrolidine-1-carbonyl)phenyl)-2,5-dimethylbenzenesulfonamide] reads 67 µM; that for `Cc1cc(Cl)ccc1S(=O)(=O)Nc1cccc(C(=O)N2CCC[C@H]2C)c1` [Example 116, (R)-4-chloro-2-methyl-N-(3-(2-methylpyrrolidine-1-carbonyl)phenyl)benzenesulfonamide], 9 µM.
The result for `O=S(=O)(Nc1csc(-c2ccccc2)n1)c1ccccn1` [Example 139, N-(2-phenylthiazol-4-yl)pyridine-2-sulfonamide] reads over 100 µM; that for `Cc1cc(Cl)ccc1S(=O)(=O)Nc1csc(-c2ccccc2)n1` [Example 135, 4-chloro-2-methyl-N-(2-phenylthiazol-4-yl)benzenesulfonamide], 2 µM.
For the compound `Cc1cc(S(=O)(=O)Nc2cccc(C(=O)N3CCCOC(C)(C)C3)c2)c(C)cc1Cl` [Example 106, 4-chloro-N-(3-(2,2-dimethyl-1,4-oxazepane-4-carbonyl)phenyl)-2,5-dimethylbenzenesulfonamide], the AC50 is over 100 µM.
The result for `Cc1cc(S(=O)(=O)Nc2csc(-c3ccccc3)n2)c(Cl)cc1F` [Example 136, 2-chloro-4-fluoro-5-methyl-N-(2-phenylthiazol-4-yl)benzenesulfonamide] reads 2 µM; that for `O=S(=O)(Nc1csc(-c2ccccc2)n1)c1ccc(Cl)cc1` [Example 120, 4-chloro-N-(2-phenylthiazol-4-yl)benzenesulfonamide], over 100 µM; that for `O=S(=O)(Nc1csc(-c2ccccc2)n1)c1ccc(F)cc1F` [Example 140, 2,4-difluoro-N-(2-phenylthiazol-4-yl)benzenesulfonamide], over 100 µM.
As to `O=S(=O)(Nc1csc(-c2ccccc2)n1)c1ccccc1` [Example 147, N-(2-phenylthiazol-4-yl)benzenesulfonamide], the AC50 is over 100 µM.
For the compound `Cc1cc(S(=O)(=O)N[C@@H]2CCCN(C(=O)[C@H]3CCCN3C)C2)c(C)cc1Cl` [Example 100, 4-chloro-2,5-dimethyl-N-((R)-1-(methyl-D-prolyl)piperidin-3-yl)benzenesulfonamide], the AC50 was over 100 µM.
The result for `Cc1cc(S(=O)(=O)Nc2cccc(-c3nccs3)c2)c(C)cc1Cl` [Example 16, 4-chloro-2,5-dimethyl-N-(3-(thiazol-2-yl)phenyl)benzenesulfonamide] reads 2 µM; that for `C[C@@H]1CCCN1C(=O)c1cccc(NS(=O)(=O)c2ccc(C(F)(F)F)cc2)c1` [Example 118, (R)-N-(3-(2-methylpyrrolidine-1-carbonyl)phenyl)-4-(trifluoromethyl)benzenesulfonamide], over 100 µM; that for `Cc1cc(S(=O)(=O)Nc2nc(-c3ccccc3)ns2)c(C)cc1Cl` [Example 132, 4-chloro-2,5-dimethyl-N-(3-phenyl-1,2,4-thiadiazol-5-yl)benzenesulfonamide], over 100 µM.
The result for `Cc1cc(S(=O)(=O)Nc2cccc(C(=O)N(C)c3ccccn3)c2)c(C)cc1Cl` [Example 109, 3-((4-chloro-2,5-dimethylphenyl)sulfonamido)-N-methyl-N-(pyridin-2-yl)benzamide] reads over 100 µM; that for `Cc1cc(S(=O)(=O)Nc2nc(-c3ccccc3)no2)c(C)cc1Cl` [Example 143, 4-chloro-2,5-dimethyl-N-(3-phenyl-1,2,4-oxadiazol-5-yl)benzenesulfonamide], over 100 µM.
The result for `O=S(=O)(Nc1csc(-c2ccccc2)n1)c1cccc2nccnc12` [Example 128, N-(2-phenylthiazol-4-yl)quinoxaline-5-sulfonamide] reads over 100 µM; that for `Cc1cc(S(=O)(=O)Nc2cccc(C(=O)NCc3ccccc3)c2)c(C)cc1Cl` [Example 11, N-benzyl-3-((4-chloro-2,5-dimethylphenyl)sulfonamido)benzamide], 34 µM.
